Assay results from patent US20090093011A1, “Biosensors for ligand-directed functional selectivity” (priority 2007, published 2009).
pEC50: −log10 of the molar value. “Also recorded” adds a separate entry of the source. Like-named read-outs stand apart in the source and are kept apart here.

Legend:
[1] = target: T1, β2AR (Homo sapiens, UniProt P07550); experiment: Ligand-induced DMR signal, RWG biosensor, quiescent A431 cells; type: cell-based; set-up: A431 cells endogenously express large numbers of the β2AR; endogenous in cells; host or cells: A431 (human epidermoid carcinoma), quiescent; details: for type of DMR signal induced by the ligand alone: saturating concentration, quiescent A431 cells; for pEC50: DMR response at assay time of 50 min; for t1/2: P-DMR event, single phase exponential association fit; for N-DMR (pm): amplitude of N-DMR event; for P-DMR (pm): amplitude of P-DMR event; for t1/2 of the P-DMR event: one-phase exponential association; for transition time (τ in seconds): time for the P-DMR event to occur; for t1/2 of single-phase exponential decay of EC50 with assay time: EC50 as a function of assay time (FIG. 3c)
Protocol: Cell culture—Human epidermoid carcinoma A431 cells (American Type Cell Culture) were grown in Dulbecco's modified Eagle's medium (DMEM) supplemented with 10% fetal bovine serum (FBS), 4.5 g/liter glucose, 2 mM glutamine, and antibiotics. About 1.8×10^4 cells at passage 3 to 8 suspended in 50 μL the DMEM medium containing 10% FBS were placed in each well of a 384-well microplate, and were cultured at 37° C. under air/5% CO2 for about 1 day, followed by about 20 hr starvation through continuously culturing in the serum-free DMEM.
Optical biosensor system and cell assays—A Corning® Epic® wavelength interrogation system with an on-board liquid handling system was used. The system is standalone and consists of a temperature-control unit, an optical detection unit, and an on-board liquid handling unit with robotics. The temperature-control unit minimizes temperature fluctuations, if any. Inside this unit, there are two side-by-side stacks for holding both the sensor microplates and compound source plates. Once stable temperature is reached (typically within 1 hr), a sensor microplate is transferred by the robotics into the plate holder right above the detection system, while a source plate is moved to an appropriate compartment so that it is readily addressable by the on-board liquid handling unit.
The detection unit has integrated fiber optics to measure the wavelength shift of the resonant lights due to ligand-induced dynamic mass redistribution in living cells. A broadband white light source centered on 830 nm, generated through a fiber optic and a collimating lens at nominally normal incidence through the bottom of the microplate, is used to illuminate a small region of the grating surface. A detection fiber for recording the reflected light is bundled with the illumination fiber. A series of illumination/detection heads are arranged in a linear fashion, so that reflection spectra are collected from the 16-wells within the same column of a 384 well microplate at once.
(§1) For kinetic assays, the cells were washed with HBSS (Hanks Balanced Salt Solution with 20 mM HEPES) buffer. After 1 hour incubation within the detection system, the sensor plate was scanned and a baseline response was recorded. Then, compound solutions were transferred into the sensor plate using the on-board liquid handling system, and the cell responses were then recorded for another period of time. The lid of the sensor microplates was on throughout the assay, except of a short period of time (about 1 min.) when the compounds were introduced. The plate lid was handled automatically by the robotics. All studies were carried out at controlled temperature (28° C.).
Statistical analysis—Unless specifically mentioned, three replicates were carried out for each measurement or each compound. The standard deviation was derived from these measurements (n=3). […] All dose-dependent responses were analyzed using non-linear regression method with Prism software (available from Graph Pad).
Ligand-specific DMR signals—β2AR in A431 cells were selected as a model system for assaying ligand-directed functional selectivity, because of well-established signaling pathways of the β2AR in A431 as well as the availability of a rich source of structurally similar ligands having wide spectrum of efficacies. A431 cells endogenously express large numbers of the β2AR (about 34,000 copies per cells). To examine the functional selectivity of β2AR ligands, we used RWG biosensor to follow change in local mass density or distribution as a function of time upon stimulation with a saturating concentration of a ligand. The RWG biosensor detects an integrated response, termed as dynamic mass redistribution (DMR) signal, mediated through ligand-induced activation of the β2AR. The DMR signal approximates a global representation of the receptor activation and signaling, particularly for signaling events associated with dynamic relocation of cellular matters at or near the sensor surface.

[2] = target: T1, β2AR; details: binding affinity reference value from literature sources; cited from earlier work
[3] = target: T1, β2AR; experiment: Catechol co-stimulation of β2AR ligand-induced DMR signals in A431 cells; type: cell-based; set-up: A431 cells endogenously express large numbers of the β2AR; endogenous in cells; host or cells: A431 (human epidermoid carcinoma), quiescent; details: catechol of 500 μM; pindolol of 10 nM, epinephrine of 100 nM
Excerpt: The ability of catechol to modulate the DMR signals induced by other ligands was examined. […] In embodiments the signaling of 600 or 610 can be completely separated, or can partially overlap.

[4] = target: T1, β2AR; details: dopamine of <100 μM; antagonist 1 μM
Protocol: as §1

[5] = tested on: dynamin; details: 2 nM epinephrine after pretreatment with 25 μM DIPC
Excerpt: Although not bound by theory, a receptor internalization process is believed to result in a loss in local mass density or distribution within the sensing volume of the biosensor, leading to a negative contribution to the overall response. Since dynamin is known to play an important role in the ligand-induced β2AR internalization, we examined the effect of inhibiting dynamin activity on the ligand responses.

[6] = target: T1, β2AR; details: βARK- and PKA-mediated phosphorylation; cited from earlier work

T1 sequence (P07550 whole entry): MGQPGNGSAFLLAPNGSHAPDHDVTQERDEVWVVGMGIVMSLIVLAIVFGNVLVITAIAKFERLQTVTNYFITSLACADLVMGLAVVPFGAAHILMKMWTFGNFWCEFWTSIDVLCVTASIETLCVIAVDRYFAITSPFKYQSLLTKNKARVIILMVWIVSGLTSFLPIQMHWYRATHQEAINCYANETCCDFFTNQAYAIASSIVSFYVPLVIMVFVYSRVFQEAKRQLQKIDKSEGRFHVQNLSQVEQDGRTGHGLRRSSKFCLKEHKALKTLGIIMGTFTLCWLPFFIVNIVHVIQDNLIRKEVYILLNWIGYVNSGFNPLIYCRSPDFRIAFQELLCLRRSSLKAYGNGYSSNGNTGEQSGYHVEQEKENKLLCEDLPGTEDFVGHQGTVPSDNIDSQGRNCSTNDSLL

Compound	type of DMR signal induced by the ligand alone [1]	t1/2 [1] [min]	N-DMR (pm) [1] [pm]	P-DMR (pm) [1] [pm]	maximal amplitude of the P-DMR event, normalized to the epinephrine response ([1]; n=16) [%]	t1/2 of the P-DMR event [1]	transition time (τ in seconds) [1] [s]	further results
NCCc1ccc(O)cc1 [tyramine]	complicated DMR signal	–	–	–	–	–	–	–
Oc1ccccc1O [catechol]	initial steady phase (termed as net-zero DMR) with a short duration, and a succeeding P-DMR	4.82 ± 0.7	0 ± 3	152 ± 13	66	about 289 s	130 ± 15	−logKi (ref.) [2]: 3.80(3); transition time (τ) [1]: about 140 sec; pEC50 [1]: 3.30
CC(C)NCC(O)COc1cccc2[nH]ccc12 (centres unmarked) [pindolol]	initial steady phase (termed as net-zero DMR) with a short duration, and a succeeding P-DMR	8.6 ± 0.783	0 ± 4	142 ± 19	61	–	250 ± 15	DMR signal on co-stimulation with catechol compared with individual signals [3]: closely resembled, but was not identical to, the sum of the two DMR signals; also recorded: close to the sum of the two DMR signals obtained individually
CNCC(O)c1ccccc1 (centres unmarked) [halostachine]	–	–	–	–	–	–	–	−logKi (ref.) [2]: 5.08(3); maximal amplitude of the P-DMR event, normalized to the epinephrine response [1]: 90%; pEC50 [1]: 4.63
O=C(NCCNCC(O)COc1ccc(O)cc1)N1CCOCC1 (centres unmarked) [xamoterol]	initial steady phase (termed as net-zero DMR) with a short duration, and a succeeding P-DMR	16.2 ± 2.5	0 ± 5	75 ± 18	–	about 974 s	260 ± 26	–
NCCc1ccccc1 [phenylethylamine]	complicated DMR signal	–	–	–	–	–	–	–
NCCc1ccc(O)c(O)c1 [dopamine]	biphasic response	8 ± 0.383	31 ± 4	214 ± 32	–	about 480 s	252 ± 15	–
O=C(CCCN1CCC2(CC1)C(=O)NCN2c1ccccc1)c1ccc(F)cc1 [spiperone]	–	–	–	–	–	–	–	inhibition of the dopamine response [4]: neither 1 μM SCH 23390 nor 1 μM spiperone
CNC[C@H](O)c1ccc(O)c(O)c1 [epinephrine]	biphasic response	8.68 ± 0.417	37 ± 7	232 ± 12	100	–	132 ± 20	t1/2 for the P-DMR event [5]: about 200 seconds; transition time (τ) [5]: about 120 sec; kobs of receptor phosphorylation [6]: about 20 sec; transition time (τ) [1]: about 140 sec; t1/2 of single-phase exponential decay of EC50 with assay time [1]: about 203 sec; duration of initial N-DMR ([1]; epinephrine response, FIG. 1): about 130 sec; duration of subsequent P-DMR ([1]; epinephrine response, FIG. 1): > 10 min; DMR signal on co-stimulation with catechol compared with individual signals [3]: almost identical to that induced by 100 nM epinephrine alone
NC[C@H](O)c1ccc(O)c(O)c1 [norepinephrine]	biphasic response	9.32 ± 0.25	29 ± 5	209 ± 16	91	–	180 ± 17	t1/2 of single-phase exponential decay of EC50 with assay time [1]: about 248 sec
